According to patent US20260224588A1, “BENZODIAZEPINONE-DERIVED INHIBITORS OF EGFR AND HER2” (The Research Foundation for the State University of New York, priority 2023, published 2026):

Tests used:
Assay in all cases: KINOMEscan
Assay type in all cases: binding
Settings in all cases: 1 μM of compound 4; read-out: POC
AAK1 = molecular target: T1, AAK1 (Homo sapiens, UniProt Q2M2I8)
T1 construct: purchased Eurofins DiscoverX Corporation

ACVR2B = ACVR2B (Homo sapiens, UniProt Q13705)
ADCK3 = ADCK3 (Homo sapiens, UniProt Q8NI60)
CAMKK1 = CAMKK1 (Homo sapiens, UniProt Q8N5S9)
CDK3 = CDK3 (Homo sapiens, UniProt Q00526)
CLK2 = CLK2 (Homo sapiens, UniProt P49760)
CLK3 = CLK3 (Homo sapiens, UniProt P49761)
CSNK2A1 = CSNK2A1 (Homo sapiens, UniProt P68400)
DCAMKL1 = DCAMKL1 (Homo sapiens, UniProt O15075)
EGFR(E746-A750del) = molecular target: T2, EGFR(E746-A750del) (Homo sapiens, UniProt P00533, DEL746-750)
T2 construct: purchased Eurofins DiscoverX (KINOMEscan service)

[1] = molecular target: T3, EGFR(L747-T751del + Sins) (Homo sapiens, UniProt P00533, DEL747-750/T751S)
T3 construct: purchased Eurofins DiscoverX (KINOMEscan service)

EIF2AK1 = molecular target: T4, EIF2AK1 (Homo sapiens, UniProt Q9BQI3)
T4 construct: purchased Eurofins DiscoverX (KINOMEscan service)

EPHA1 = molecular target: T5, EPHA1 (Homo sapiens, UniProt P21709)
T5 construct: purchased Eurofins DiscoverX (KINOMEscan service)

EPHA7 = molecular target: T6, EPHA7 (Homo sapiens, UniProt Q15375)
T6 construct: purchased Eurofins DiscoverX (KINOMEscan service)

FGFR2 = molecular target: T7, FGFR2 (Homo sapiens, UniProt P21802)
T7 construct: purchased Eurofins DiscoverX Corporation

FGFR4 = molecular target: T8, FGFR4 (Homo sapiens, UniProt P22455)
T8 construct: purchased Eurofins DiscoverX Corporation

FLT1 = molecular target: T9, FLT1 (Homo sapiens, UniProt P17948)
T9 construct: purchased Eurofins DiscoverX Corporation

FLT3 = molecular target: T10, FLT3 (Homo sapiens, UniProt P36888)
T10 construct: purchased Eurofins DiscoverX Corporation

FLT4 = molecular target: T11, FLT4 (Homo sapiens, UniProt P35916)
T11 construct: purchased Eurofins DiscoverX Corporation

FYN = molecular target: T12, FYN (Homo sapiens, UniProt P06241)
T12 construct: purchased Eurofins DiscoverX Corporation

GRK3 = molecular target: T13, GRK3 (Homo sapiens, UniProt P35626)
T13 construct: purchased Eurofins DiscoverX Corporation

HIPK2 = molecular target: T14, HIPK2 (Homo sapiens, UniProt Q9H2X6)
T14 construct: purchased Eurofins DiscoverX Corporation

LRRK2 = LRRK2 (Homo sapiens, UniProt Q5S007)
MAK = MAK (Homo sapiens, UniProt P20794)
MARK4 = MARK4 (Homo sapiens, UniProt Q96L34)
MRCKA = MRCKA (Homo sapiens, UniProt Q5VT25)
MUSK = MUSK (Homo sapiens, UniProt O15146)
MYO3B = MYO3B (Homo sapiens, UniProt Q8WXR4)
PAK2 = molecular target: T15, PAK2 (Homo sapiens, UniProt Q13177)
T15 construct: purchased Eurofins DiscoverX Corporation (KINOMEscan)

PCTK3 = molecular target: T16, PCTK3 (Homo sapiens, UniProt Q07002)
T16 construct: purchased Eurofins DiscoverX Corporation (KINOMEscan)

PKN1 = PKN1 (Homo sapiens, UniProt Q16512)
PRKCE = PRKCE (Homo sapiens, UniProt Q02156)
RET(V804M) = molecular target: T17, RET(V804M) (Homo sapiens, UniProt P07949, V804M)
T17 construct: purchased Eurofins DiscoverX Corporation (KINOMEscan screening service)

ROCK2 = molecular target: T18, ROCK2 (Homo sapiens, UniProt O75116)
T18 construct: purchased Eurofins DiscoverX Corporation (KINOMEscan screening service)

[2] = molecular target: T19, RPS6KA4(Kin.Dom.2-C-terminal) (Homo sapiens, UniProt O75676)
T19 construct: RPS6KA4(Kin.Dom.2-C-terminal); purchased Eurofins DiscoverX Corporation (KINOMEscan screening service)

SRC = molecular target: T20, SRC (Homo sapiens, UniProt P12931)
T20 construct: purchased Eurofins DiscoverX (KINOMEscan service)

TEC = molecular target: T21, TEC (Homo sapiens, UniProt P42680)
T21 construct: purchased Eurofins DiscoverX Corporation

TIE2 = molecular target: T22, TIE2 (Homo sapiens, UniProt Q02763)
T22 construct: purchased Eurofins DiscoverX Corporation

TLK1 = molecular target: T23, TLK1 (Homo sapiens, UniProt Q9UKI8)
T23 construct: purchased Eurofins DiscoverX Corporation

Sequence of ADCK3 (Q8NI60 163-647): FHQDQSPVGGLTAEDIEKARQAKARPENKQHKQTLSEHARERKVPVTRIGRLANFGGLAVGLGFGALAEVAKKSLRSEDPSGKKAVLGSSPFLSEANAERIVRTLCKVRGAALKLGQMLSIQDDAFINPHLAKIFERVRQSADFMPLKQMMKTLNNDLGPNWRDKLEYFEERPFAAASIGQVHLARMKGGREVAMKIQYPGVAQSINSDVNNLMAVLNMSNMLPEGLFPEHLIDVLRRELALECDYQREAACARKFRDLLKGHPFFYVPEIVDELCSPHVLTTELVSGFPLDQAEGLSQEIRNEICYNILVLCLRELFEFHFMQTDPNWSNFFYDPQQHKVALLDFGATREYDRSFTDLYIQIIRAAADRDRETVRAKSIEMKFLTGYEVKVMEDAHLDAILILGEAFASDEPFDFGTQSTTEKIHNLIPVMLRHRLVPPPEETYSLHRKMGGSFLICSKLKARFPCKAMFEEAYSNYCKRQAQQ
Sequence of CSNK2A1 (P68400 whole entry): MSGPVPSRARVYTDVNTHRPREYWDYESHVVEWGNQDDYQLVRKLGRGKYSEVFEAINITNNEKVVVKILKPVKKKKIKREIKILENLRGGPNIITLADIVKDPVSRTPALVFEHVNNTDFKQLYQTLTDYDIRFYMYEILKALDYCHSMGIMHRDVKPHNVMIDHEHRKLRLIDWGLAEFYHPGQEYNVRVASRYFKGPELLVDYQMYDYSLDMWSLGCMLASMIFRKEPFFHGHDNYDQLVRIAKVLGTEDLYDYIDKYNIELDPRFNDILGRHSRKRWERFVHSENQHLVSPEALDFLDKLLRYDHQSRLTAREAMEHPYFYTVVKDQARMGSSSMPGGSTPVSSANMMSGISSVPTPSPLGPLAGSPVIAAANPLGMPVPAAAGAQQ
T9 sequence (P17948 27-1338): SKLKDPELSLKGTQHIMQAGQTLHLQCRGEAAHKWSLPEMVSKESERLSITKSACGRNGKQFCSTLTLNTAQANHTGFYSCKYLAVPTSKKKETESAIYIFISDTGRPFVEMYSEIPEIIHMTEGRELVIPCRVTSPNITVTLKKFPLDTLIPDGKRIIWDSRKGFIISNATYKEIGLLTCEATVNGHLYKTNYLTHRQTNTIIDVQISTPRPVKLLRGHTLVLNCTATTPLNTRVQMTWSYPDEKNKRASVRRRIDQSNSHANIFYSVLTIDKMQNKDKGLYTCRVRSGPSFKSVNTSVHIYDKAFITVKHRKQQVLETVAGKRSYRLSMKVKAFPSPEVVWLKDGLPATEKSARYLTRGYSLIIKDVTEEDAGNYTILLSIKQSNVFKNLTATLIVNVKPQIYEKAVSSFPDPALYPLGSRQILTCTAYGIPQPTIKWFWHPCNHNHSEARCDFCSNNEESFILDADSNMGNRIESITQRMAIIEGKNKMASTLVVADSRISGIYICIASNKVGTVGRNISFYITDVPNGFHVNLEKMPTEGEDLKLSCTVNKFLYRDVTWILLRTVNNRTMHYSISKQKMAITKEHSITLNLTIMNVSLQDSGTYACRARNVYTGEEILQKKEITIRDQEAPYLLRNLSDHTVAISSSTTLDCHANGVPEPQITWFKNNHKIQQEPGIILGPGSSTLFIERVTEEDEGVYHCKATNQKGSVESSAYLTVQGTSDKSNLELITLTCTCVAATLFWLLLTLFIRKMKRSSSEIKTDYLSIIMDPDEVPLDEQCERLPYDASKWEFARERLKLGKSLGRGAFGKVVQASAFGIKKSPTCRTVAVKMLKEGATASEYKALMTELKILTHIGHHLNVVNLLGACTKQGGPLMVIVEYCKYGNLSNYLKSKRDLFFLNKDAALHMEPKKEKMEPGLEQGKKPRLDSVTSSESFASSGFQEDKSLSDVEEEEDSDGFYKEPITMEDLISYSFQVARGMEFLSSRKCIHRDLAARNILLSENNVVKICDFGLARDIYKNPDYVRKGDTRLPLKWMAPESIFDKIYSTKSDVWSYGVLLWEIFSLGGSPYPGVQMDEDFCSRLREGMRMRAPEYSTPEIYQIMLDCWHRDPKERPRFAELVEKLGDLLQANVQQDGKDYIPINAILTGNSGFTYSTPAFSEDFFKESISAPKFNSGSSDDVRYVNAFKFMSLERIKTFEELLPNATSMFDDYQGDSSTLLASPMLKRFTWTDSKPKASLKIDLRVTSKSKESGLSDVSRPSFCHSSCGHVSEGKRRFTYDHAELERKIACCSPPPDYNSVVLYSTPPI
Sequence of CDK3 (Q00526 whole entry): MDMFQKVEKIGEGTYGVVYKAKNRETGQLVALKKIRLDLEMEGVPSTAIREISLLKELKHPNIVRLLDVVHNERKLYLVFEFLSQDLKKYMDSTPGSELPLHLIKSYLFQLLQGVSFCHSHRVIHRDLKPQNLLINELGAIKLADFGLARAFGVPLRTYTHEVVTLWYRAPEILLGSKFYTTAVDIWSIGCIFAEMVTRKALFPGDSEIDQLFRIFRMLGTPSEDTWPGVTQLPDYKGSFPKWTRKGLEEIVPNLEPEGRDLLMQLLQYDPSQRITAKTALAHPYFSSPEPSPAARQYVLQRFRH
Sequence of MAK (P20794 whole entry): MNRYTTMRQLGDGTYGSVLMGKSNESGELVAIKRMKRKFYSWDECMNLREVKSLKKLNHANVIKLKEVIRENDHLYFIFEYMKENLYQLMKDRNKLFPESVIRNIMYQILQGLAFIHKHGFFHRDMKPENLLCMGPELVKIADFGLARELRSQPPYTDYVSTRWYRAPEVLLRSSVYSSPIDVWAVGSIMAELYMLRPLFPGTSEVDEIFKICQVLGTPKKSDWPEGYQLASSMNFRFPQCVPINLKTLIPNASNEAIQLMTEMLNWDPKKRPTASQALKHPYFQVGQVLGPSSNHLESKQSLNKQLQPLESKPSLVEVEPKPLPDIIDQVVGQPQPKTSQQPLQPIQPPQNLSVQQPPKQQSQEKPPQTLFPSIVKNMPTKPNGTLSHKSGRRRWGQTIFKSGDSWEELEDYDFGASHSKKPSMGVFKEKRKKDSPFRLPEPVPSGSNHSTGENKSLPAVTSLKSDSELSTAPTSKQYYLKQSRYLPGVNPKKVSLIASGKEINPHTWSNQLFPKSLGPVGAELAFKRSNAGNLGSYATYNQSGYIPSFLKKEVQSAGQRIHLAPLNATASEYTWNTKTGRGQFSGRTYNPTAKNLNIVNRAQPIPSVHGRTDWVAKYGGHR
T2 sequence (P00533 with tags, fused parts or gaps DEL746-750): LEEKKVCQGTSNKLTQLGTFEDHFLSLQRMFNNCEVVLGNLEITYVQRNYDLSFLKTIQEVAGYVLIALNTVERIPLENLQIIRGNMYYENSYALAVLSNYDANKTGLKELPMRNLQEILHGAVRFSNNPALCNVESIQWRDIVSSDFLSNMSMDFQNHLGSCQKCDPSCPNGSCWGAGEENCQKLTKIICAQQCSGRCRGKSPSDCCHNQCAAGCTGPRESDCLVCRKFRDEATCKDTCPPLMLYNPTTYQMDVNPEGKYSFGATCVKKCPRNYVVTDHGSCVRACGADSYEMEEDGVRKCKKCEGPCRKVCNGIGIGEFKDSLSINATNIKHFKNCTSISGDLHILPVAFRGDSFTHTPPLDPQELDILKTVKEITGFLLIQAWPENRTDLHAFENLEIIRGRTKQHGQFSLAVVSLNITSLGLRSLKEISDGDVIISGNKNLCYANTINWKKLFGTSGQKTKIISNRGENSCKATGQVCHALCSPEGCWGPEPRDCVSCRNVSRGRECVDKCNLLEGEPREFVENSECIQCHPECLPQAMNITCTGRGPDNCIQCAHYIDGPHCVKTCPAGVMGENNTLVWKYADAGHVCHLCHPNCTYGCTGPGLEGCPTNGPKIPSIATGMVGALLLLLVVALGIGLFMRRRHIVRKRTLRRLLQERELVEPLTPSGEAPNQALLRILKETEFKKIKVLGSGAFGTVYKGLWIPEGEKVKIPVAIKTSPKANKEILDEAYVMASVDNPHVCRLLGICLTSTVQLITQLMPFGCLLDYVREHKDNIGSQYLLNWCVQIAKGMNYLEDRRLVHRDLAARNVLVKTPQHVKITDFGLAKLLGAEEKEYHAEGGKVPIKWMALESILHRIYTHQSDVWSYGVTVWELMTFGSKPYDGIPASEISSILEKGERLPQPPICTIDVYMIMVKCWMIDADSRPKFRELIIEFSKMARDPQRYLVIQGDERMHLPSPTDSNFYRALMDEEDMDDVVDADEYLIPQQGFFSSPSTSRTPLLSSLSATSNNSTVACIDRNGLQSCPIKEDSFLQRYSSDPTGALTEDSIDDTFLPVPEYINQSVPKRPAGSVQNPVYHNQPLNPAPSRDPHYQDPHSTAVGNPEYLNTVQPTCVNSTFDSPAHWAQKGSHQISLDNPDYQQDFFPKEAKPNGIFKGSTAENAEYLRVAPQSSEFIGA
Sequence of PRKCE (Q02156 whole entry): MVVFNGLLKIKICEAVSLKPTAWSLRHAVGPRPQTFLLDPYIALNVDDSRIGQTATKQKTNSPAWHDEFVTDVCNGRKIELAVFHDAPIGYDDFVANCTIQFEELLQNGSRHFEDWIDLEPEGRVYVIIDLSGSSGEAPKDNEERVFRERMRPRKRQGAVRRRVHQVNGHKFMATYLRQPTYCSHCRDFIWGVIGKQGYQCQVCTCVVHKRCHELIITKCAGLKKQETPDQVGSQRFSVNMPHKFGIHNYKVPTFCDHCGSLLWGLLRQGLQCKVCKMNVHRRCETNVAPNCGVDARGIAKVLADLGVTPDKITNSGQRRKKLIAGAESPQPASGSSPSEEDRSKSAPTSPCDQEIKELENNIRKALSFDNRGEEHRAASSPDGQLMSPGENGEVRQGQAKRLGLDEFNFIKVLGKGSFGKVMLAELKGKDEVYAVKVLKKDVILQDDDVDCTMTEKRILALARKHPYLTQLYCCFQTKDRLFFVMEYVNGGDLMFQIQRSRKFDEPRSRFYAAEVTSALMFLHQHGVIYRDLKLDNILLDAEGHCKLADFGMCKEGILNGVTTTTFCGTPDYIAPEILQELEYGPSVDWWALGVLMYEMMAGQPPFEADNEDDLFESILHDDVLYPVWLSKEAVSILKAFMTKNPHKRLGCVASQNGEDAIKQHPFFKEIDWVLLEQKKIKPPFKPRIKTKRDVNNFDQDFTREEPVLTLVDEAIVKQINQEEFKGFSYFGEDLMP

C=CC(=O)Nc1ccc(OC)c(Nc2cc(-c3[nH]c(CC)nc3-c3cccc(NC(=O)c4cccc5c4NC(=O)c4ccccc4N5)c3)ccn2)c1 [Compound 4, N-(3-(5-(2-((5-Acrylamido-2-methoxyphenyl)amino)pyridin-4-yl)-2-ethyl-1H-imidazol-4-yl)phenyl)-11-oxo-10,11-dihydro-5H-dibenzo[b,e][1,4]diazepine-9-carboxamide]
remaining binding at 1 µM (AAK1): 100%
remaining binding at 1 µM (ACVR2B): 72%
remaining binding at 1 µM (ADCK3): 100%
remaining binding at 1 µM (CAMKK1): 85%
remaining binding at 1 µM (CDK3): 100%
remaining binding at 1 µM (CLK2): 63%
remaining binding at 1 µM (CLK3): 74%
remaining binding at 1 µM (CSNK2A1): 100%
remaining binding at 1 µM (DCAMKL1): 100%
remaining binding at 1 µM (EGFR(E746-A750del)): 13%
remaining binding at 1 µM [1]: 7.6%
remaining binding at 1 µM (EIF2AK1): 75%
remaining binding at 1 µM (EPHA1): 100%
remaining binding at 1 µM (EPHA7): 100%
remaining binding at 1 µM (FGFR2): 100%
remaining binding at 1 µM (FGFR4): 100%
remaining binding at 1 µM (FLT1): 100%
remaining binding at 1 µM (FLT3): 100%
remaining binding at 1 µM (FLT4): 100%
remaining binding at 1 µM (FYN): 64%
remaining binding at 1 µM (GRK3): 100%
remaining binding at 1 µM (HIPK2): 100%
remaining binding at 1 µM (LRRK2): 93%
remaining binding at 1 µM (MAK): 89%
remaining binding at 1 µM (MARK4): 92%
remaining binding at 1 µM (MRCKA): 0%
remaining binding at 1 µM (MUSK): 100%
remaining binding at 1 µM (MYO3B): 31%
remaining binding at 1 µM (PAK2): 100%
remaining binding at 1 µM (PCTK3): 93%
remaining binding at 1 µM (PKN1): 88%
remaining binding at 1 µM (PRKCE): 100%
remaining binding at 1 µM (RET(V804M)): 91%
remaining binding at 1 µM (ROCK2): 94%
remaining binding at 1 µM [2]: 75%
remaining binding at 1 µM (SRC): 73%
remaining binding at 1 µM (TEC): 45%
remaining binding at 1 µM (TIE2): 71%
remaining binding at 1 µM (TLK1): 87%
